Among the data in patent US10669240B2, “5-substituted indazole-3-carboxamides and preparation and use thereof” (Samumed, LLC, priority 2014, dated 2020) are EC50 values, retold here.

Each structure is given as a SMILES string.

As usually defined, the EC50 is the concentration needed to bring the measured effect to its halfway point. Lower therefore signals greater potency.

The test concerns the target DYRK1A (Homo sapiens (Human), UniProt Q13627). The test is described as follows: DYRK1A activity Tau assay: pSer396 Tau in SH-SY5Y cells by ELISA / western blot. The format is cell-based. The settings on record: overnight (16-18 h) exposure. On the technique in general: An ELISA detects its analyte on a solid surface through an enzyme-linked reagent.

Source text: In another example, in vitro assays for DYRK1A biological activity may be used, e.g. regulation of microtubule-associated protein tau (MAPT/Tau) phosphorylation in neuronal cell line such as the human SH-SY5Y neuroblastoma cell line. Assays for DYRK1a-regulated level of phosphorylation can include monitoring levels of basal pSer396 Tau, which can be measured, for example, by serial dilutions of a candidate inhibitor composition using a ten micromolar top concentration and detected by ELISA or Western Blotting. An exemplary assay for DYRK-1a-regulated phosphorylation uses the SH-SY5Y cells cultured in a 96 well plate format for a period of time sufficient to stabilize microtubules and Tau phosphorylation, usually at least 2 days, then treated with a 1/3 serial dilution of compounds overnight and lysed. The cell lysate is resolved by SDS PAGE, then transferred to nitrocellulose and probed with an antibody specific for pSer396 Tau.
In a further example, the activity of a candidate compound can be measured by ELISA by adding the lysate mentioned above onto total Tau-coated plates and detected with a specific pSer396 antibody.

`O=C(NC1CCN(CCF)CC1)c1n[nH]c2ccc(-c3cncc(Cl)c3)cc12` [Compound 1296, 5-(5-Chloropyridin-3-yl)-N-(1-(2-fluoroethyl)piperidin-4-yl)-1H-indazole-3-carboxamide]: the EC50 was determined as 27 nM.

With `O=C(NC1Cc2ccccc2C1)c1n[nH]c2ccc(-c3cncc(CN4CCCCC4)c3)cc12` [Compound 24, N-(2,3-Dihydro-1H-inden-2-yl)-5-(5-(piperidin-1-ylmethyl)pyridin-3-yl)-1H-indazole-3-carboxamide], the half-maximal effective concentration (EC50) amounted to 15 nM.

Turning to `O=C(NC1CCCCC1)c1n[nH]c2ccc(-c3cncnc3)cc12` [Compound 1281, N-Cyclohexyl-5-(pyrimidin-5-yl)-1H-indazole-3-carboxamide], the midpoint of the response, the EC50, lay at 64 nM.

Turning to `O=C(NCc1cc(F)cc(F)c1)c1n[nH]c2ccc(-c3cc(F)cc(CN4CCCCC4)c3)cc12` [Compound 31, N-(3,5-Difluorobenzyl)-5-(3-fluoro-5-(piperidin-1-ylmethyl)phenyl)-1H-indazole-3-carboxamide], a half-maximal effect (EC50) was put at 118 nM.

Compound `CN(C)CCCNC(=O)c1n[nH]c2ccc(-c3cccc(F)c3F)cc12` [Compound 1260, 5-(2,3-Difluorophenyl)-N-(3-(dimethylamino)propyl)-1H-indazole-3-carboxamide] registered an EC50 of 135 nM.

Compound `O=C(Nc1ccc(CN2CCCC2)cc1)c1n[nH]c2ccc(-c3cccnc3)cc12` [Compound 1326, 5-(Pyridin-3-yl)-N-(4-(pyrrolidin-1-ylmethyl)phenyl)-1H-indazole-3-carboxamide] gave a 50% effective concentration (EC50) of 10 nM.

With `CCN(CC)Cc1cncc(-c2ccc3[nH]nc(C(=O)NC(C)(C)C)c3c2)c1` [Compound 1252, N-(tert-Butyl)-5-(5-((diethylamino)methyl)pyridin-3-yl)-1H-indazole-3-carboxamide], the half-maximal effective concentration (EC50) was determined as 421 nM.

`CN1CCC(NC(=O)c2n[nH]c3ccc(-c4ccc(C(F)(F)F)nc4)cc23)CC1` [Compound 94, N-(1-Methylpiperidin-4-yl)-5-(6-(trifluoromethyl)pyridin-3-yl)-1H-indazole-3-carboxamide]: the 50% effective concentration (EC50) was > 10000 nM.

`CC(C)NC(=O)c1n[nH]c2ccc(-c3cncnc3)cc12` [Compound 1248, N-Isopropyl-5-(pyrimidin-5-yl)-1H-indazole-3-carboxamide] showed a half-maximal effective concentration (EC50) of 174 nM.

On to `CC(C)CCN1CCC(NC(=O)c2n[nH]c3ccc(-c4cccnc4)cc23)CC1` [Compound 1316, N-(1-Isopentylpiperidin-4-yl)-5-(pyridin-3-yl)-1H-indazole-3-carboxamide], for which the concentration giving a half-maximal response (EC50) was 12 nM.

In turn, `CC(C)CNC(=O)c1n[nH]c2ccc(-c3cncc(Cl)c3)cc12` [Compound 1255, 5-(5-Chloropyridin-3-yl)-N-isobutyl-1H-indazole-3-carboxamide] returned a concentration for a half-maximal effect (EC50) of 35 nM.

In the case of `CC(C)NC(=O)c1n[nH]c2ccc(-c3cncc4ccccc34)cc12` [Compound 1249, N-Isopropyl-5-(isoquinolin-4-yl)-1H-indazole-3-carboxamide], the concentration giving a half-maximal response (EC50) is 148 nM.

In turn, `CC(F)(F)CN1CCC(NC(=O)c2n[nH]c3ccc(-c4cccnc4)cc23)CC1` [Compound 1300, N-(1-(2,2-Difluoropropyl)piperidin-4-yl)-5-(pyridin-3-yl)-1H-indazole-3-carboxamide] came in with an EC50 of 6 nM.

`CC(C)CN1CCC(NC(=O)c2n[nH]c3ccc(-c4cccc(F)c4F)cc23)CC1` [Compound 93, 5-(2,3-Difluorophenyl)-N-(1-isobutylpiperidin-4-yl)-1H-indazole-3-carboxamide] had a half-maximal effective concentration (EC50) of 73 nM.

`CC(C)CNC(=O)c1n[nH]c2ccc(-c3cccnc3)cc12` [Compound 1254, N-Isobutyl-5-(pyridin-3-yl)-1H-indazole-3-carboxamide]: a half-maximal response (EC50) required 9 nM.

In turn, `NC1CN(c2cncc(-c3ccc4[nH]nc(C(=O)Nc5cccnc5)c4c3)n2)C1` [Compound 1317, 5-(6-(3-Aminoazetidin-1-yl)pyrazin-2-yl)-N-(pyridin-3-yl)-1H-indazole-3-carboxamide] registered an EC50 of 1 nM.

`O=C(NCc1ccccc1)c1n[nH]c2ccc(-c3cncc(CN4CCCCC4)c3)cc12` [Compound 26, N-Benzyl-5-(5-(piperidin-1-ylmethyl)pyridin-3-yl)-1H-indazole-3-carboxamide] registered a concentration for a half-maximal effect (EC50) of 1 nM.

In turn, `C#CCN1CCC(NC(=O)c2n[nH]c3ccc(-c4cccnc4)cc23)CC1` [Compound 349, N-(1-(Prop-2-yn-1-yl)piperidin-4-yl)-5-(pyridin-3-yl)-1H-indazole-3-carboxamide] came in with a half-maximal effective concentration (EC50) of 5 nM.

`CN(C)CCNC(=O)c1n[nH]c2ccc(-c3cccc(F)c3F)cc12` [Compound 1165, 5-(2,3-Difluorophenyl)-N-(2-(dimethylamino)ethyl)-1H-indazole-3-carboxamide] gave an EC50 of 77 nM.

Compound `O=C(Nc1ccnc(C(F)(F)F)c1)c1n[nH]c2ccc(-c3cncc(N4CCCC4)c3)cc12` [Compound 820, 5-(5-(Pyrrolidin-1-yl)pyridin-3-yl)-N-(2-(trifluoromethyl)pyridin-4-yl)-1H-indazole-3-carboxamide] yielded a concentration for a half-maximal effect (EC50) of 81 nM.

Take `O=C(NC1Cc2ccccc2C1)c1n[nH]c2ccc(-c3cncc(CN4CCCC4)c3)cc12` [Compound 25, N-(2,3-Dihydro-1H-inden-2-yl)-5-(5-(pyrrolidin-1-ylmethyl)pyridin-3-yl)-1H-indazole-3-carboxamide]: it took 28 nM to reach a half-maximal effect (EC50).

In turn, `O=C(Nc1cccc(C(F)(F)F)n1)c1n[nH]c2ccc(-c3cncc(CN4CCCCC4)c3)cc12` [Compound 62, 5-(5-(Piperidin-1-ylmethyl)pyridin-3-yl)-N-(6-(trifluoromethyl)pyridin-2-yl)-1H-indazole-3-carboxamide] yielded a concentration giving a half-maximal response (EC50) of 5 nM.

`CCC(CC)NC(=O)c1n[nH]c2ccc(-c3cncc(N4CCCC4)c3)cc12` [Compound 1215, N-(Pentan-3-yl)-5-(5-(pyrrolidin-1-yl)pyridin-3-yl)-1H-indazole-3-carboxamide] displayed a 50% effective concentration (EC50) of 199 nM.

Compound `CCN1CCC(NC(=O)c2n[nH]c3ccc(-c4cnc5ccccc5c4)cc23)CC1` [Compound 1294, N-(1-Ethylpiperidin-4-yl)-5-(quinolin-3-yl)-1H-indazole-3-carboxamide] showed a 50% effective concentration (EC50) of 238 nM.

The compound `CN(C)Cc1ccc(NC(=O)c2n[nH]c3ccc(-c4cccc(F)c4F)cc23)cc1` [Compound 1325, 5-(2,3-Difluorophenyl)-N-(4-((dimethylamino)methyl)phenyl)-1H-indazole-3-carboxamide] yielded a 50% effective concentration (EC50) of 54 nM.

As to `O=C(NC1CCN(CC(F)F)CC1)c1n[nH]c2ccc(-c3cccnc3)cc12` [Compound 1181, N-(1-(2,2-Difluoroethyl)piperidin-4-yl)-5-(pyridin-3-yl)-1H-indazole-3-carboxamide], a half-maximal response (EC50) required 6 nM.

Consider `CC(C)N1CCC(NC(=O)c2n[nH]c3ccc(-c4cncc(C(F)F)c4)cc23)CC1` [Compound 1303, 5-(5-(Difluoromethyl)pyridin-3-yl)-N-(1-isopropylpiperidin-4-yl)-1H-indazole-3-carboxamide], for which the EC50 was 117 nM.

`O=C(NC1CCN(CCF)CC1)c1n[nH]c2ccc(-c3cccnc3)cc12` [Compound 1180, N-(1-(2-Fluoroethyl)piperidin-4-yl)-5-(pyridin-3-yl)-1H-indazole-3-carboxamide] registered an EC50 of 6 nM.

Consider `CN1CCC(NC(=O)c2n[nH]c3ccc(-c4cccc(F)c4F)cc23)CC1` [Compound 20, 5-(2,3-Difluorophenyl)-N-(1-methylpiperidin-4-yl)-1H-indazole-3-carboxamide], for which it took 29 nM to reach a half-maximal effect (EC50).

`O=C(NC1CCC(F)(F)CC1)c1n[nH]c2ccc(-c3cncc(F)c3)cc12` [Compound 1284, N-(4,4-Difluorocyclohexyl)-5-(5-fluoropyridin-3-yl)-1H-indazole-3-carboxamide]: the EC50 was 17 nM.

Compound `CN1CCC(NC(=O)c2n[nH]c3ccc(-c4cccc(F)c4)cc23)CC1` [Compound 15, 5-(3-Fluorophenyl)-N-(1-methylpiperidin-4-yl)-1H-indazole-3-carboxamide] returned an EC50 of 324 nM.

For the compound `O=C(NC1CCCC1)c1n[nH]c2ccc(-c3cncc(Cl)c3)cc12` [Compound 1279, 5-(5-Chloropyridin-3-yl)-N-cyclopentyl-1H-indazole-3-carboxamide], the EC50 is 98 nM.

Turning to `CC(C)N1CCC(NC(=O)c2n[nH]c3ccc(-c4cccc(F)c4F)cc23)CC1` [Compound 92, 5-(2,3-Difluorophenyl)-N-(1-isopropylpiperidin-4-yl)-1H-indazole-3-carboxamide], the concentration for a half-maximal effect (EC50) was determined as 100 nM.

In turn, `CC(C)CN1CCC(NC(=O)c2n[nH]c3ccc(-c4cncc(Cl)c4)cc23)CC1` [Compound 1307, 5-(5-Chloropyridin-3-yl)-N-(1-isobutylpiperidin-4-yl)-1H-indazole-3-carboxamide] gave an EC50 of 47 nM.

Compound `O=C(NCCN1CCCCC1)c1n[nH]c2ccc(-c3cccc(F)c3F)cc12` [Compound 1266, 5-(2,3-Difluorophenyl)-N-(2-(piperidin-1-yl)ethyl)-1H-indazole-3-carboxamide] showed a half-maximal effective concentration (EC50) of 75 nM.

For the compound `O=C(NC1(c2ccccc2)CC1)c1n[nH]c2ccc(-c3cccnc3)cc12` [Compound 32, N-(1-Phenylcyclopropyl)-5-(pyridin-3-yl)-1H-indazole-3-carboxamide], the 50% effective concentration (EC50) came out at 279 nM.

Compound `CCN1CCC(NC(=O)c2n[nH]c3ccc(-c4cncc5ccccc45)cc23)CC1` [Compound 1292, N-(1-Ethylpiperidin-4-yl)-5-(isoquinolin-4-yl)-1H-indazole-3-carboxamide] showed a half-maximal effective concentration (EC50) of 74 nM.

`CC(C)NC(=O)c1n[nH]c2ccc(-c3cncc(CN4CCC4)c3)cc12` [Compound 128, 5-(5-(Azetidin-1-ylmethyl)pyridin-3-yl)-N-isopropyl-1H-indazole-3-carboxamide] yielded a concentration for a half-maximal effect (EC50) of 43 nM.

`O=C(NC1CCCC1)c1n[nH]c2ccc(-c3cccnc3)cc12` [Compound 179, N-Cyclopentyl-5-(pyridin-3-yl)-1H-indazole-3-carboxamide]: the EC50 was 9 nM.

For the compound `COc1cccc(-c2ccc3[nH]nc(C(=O)NC(C)C)c3c2)c1F` [Compound 1339, 5-(2-Fluoro-3-methoxyphenyl)-N-isopropyl-1H-indazole-3-carboxamide], the EC50 was > 10000 nM.
